Experimental data taken from US4021552A, “10-[ω-(BENZOYLPIPERIDINYL)ALKYL]PHENOTHIAZINES” (A. H. Robins Company, Incorporated, priority 1976, dated 1977).
Where a name gives a salt, the structure may show the parent alone. Read-outs that look alike come from different tables or passages of the source.

What was measured:
[1] = tested on: d-amphetamine lethality in mice; experiment: block of lethal effects of d-amphetamine in aggregated mice (modified procedure of Burn and Hobbs); assay type: in vivo; conditions: Mus musculus
From the text: Intern. Pharmacodyn. 113: 290 (1958).
Effects of different pretreatment time intervals
on d-amphetamine lethality in mice

[2] = acute toxicity (72 hour LD50) in mice; conditions: mouse, in vivo, IP, read-out: 72 hour LD50 (95% Confidence Limits)
[3] = IP, mice, 1 hr. pretreatment, read-out: Protective ED50 (95% confidence limits)
[4] = IP, mice, 4 hrs. pretreatment, read-out: Protective ED50 (95% confidence limits)
[5] = IP, mice, 8 hrs. pretreatment, read-out: Protective ED50 (95% confidence limits)
[6] = IP, mice, 16 hrs. pretreatment, read-out: Protective ED50 (95% confidence limits)

Row | Compound | ED50 [1, 3] | ED50 [1, 4] | ED50 [1, 5] | ED50 [1, 6] | LD50 at 72 h [2] | ED50 ([1]; ip, running text: administered I.P. in mice, after 16 hours, read-out: ED50)
1 | O=C(c1ccc(F)cc1)C1CCN(CCCN2c3ccccc3Sc3ccccc32)CC1 [Example 1, 10-[3-(4-p-Fluorobenzoylpiperidinyl)propyl]phenothiazine Fumarate Hydrate (1:4)] | 0.94 mg/kg | 0.35 mg/kg | 1.27 mg/kg | 12.1 mg/kg | 330 mg/kg | 
2 | O=C(c1ccc(F)cc1)C1CCN(CCCN2c3ccccc3Sc3ccc(C(F)(F)F)cc32)CC1 [Example 4, 2-Trifluoromethyl-10-[3-(4-p-fluorobenzoylpiperidinyl)propyl]phenothiazineFumarate] | 1.44 mg/kg | 3.5 mg/kg | 1.4 mg/kg | 1.89 mg/kg | 317 mg/kg | 
3 | CC(=O)c1ccc2c(c1)N(CCCN1CCC(C(=O)c3ccc(F)cc3)CC1)c1ccccc1S2 [Example 6, 2-Acetyl-10-[3-(4-p-fluorobenzoylpiperidiny)propyl] phenothiazine Difumarate Sesquihydrate] | 0.14 mg/kg | 0.1 mg/kg | 0.06 mg/kg | 0.76 mg/kg | 287 mg/kg | 
4 | O=C(c1ccc(F)cc1)C1CCN(CCCN2c3ccccc3Sc3ccc(Cl)cc32)CC1 [Example 7, 2-Chloro-10-[3-(4-p-fluorobenzoylpiperidinyl)propyl] phenothiazine Hydrochloride Hydrate (1:4)] | 0.17 mg/kg | 0.53 mg/kg | 0.19 mg/kg | 0.72 mg/kg | 248 mg/kg | 0.72 mg/kg
